From patent publication US9617602B2, “Methods and compositions for determining resistance to androgen receptor therapy” (Aragon Pharmaceuticals, Inc., priority 2012, dated 2017) come the findings set out here.

Structures are written as SMILES. Residue numbers refer to the chain shown, from its start.

The target in one test is T1, wild-type AR (Homo sapiens, UniProt P10275, DEL79-80/DUP473-473).
T1 sequence (P10275 with tags, fused parts or gaps DEL79-80/DUP473-473): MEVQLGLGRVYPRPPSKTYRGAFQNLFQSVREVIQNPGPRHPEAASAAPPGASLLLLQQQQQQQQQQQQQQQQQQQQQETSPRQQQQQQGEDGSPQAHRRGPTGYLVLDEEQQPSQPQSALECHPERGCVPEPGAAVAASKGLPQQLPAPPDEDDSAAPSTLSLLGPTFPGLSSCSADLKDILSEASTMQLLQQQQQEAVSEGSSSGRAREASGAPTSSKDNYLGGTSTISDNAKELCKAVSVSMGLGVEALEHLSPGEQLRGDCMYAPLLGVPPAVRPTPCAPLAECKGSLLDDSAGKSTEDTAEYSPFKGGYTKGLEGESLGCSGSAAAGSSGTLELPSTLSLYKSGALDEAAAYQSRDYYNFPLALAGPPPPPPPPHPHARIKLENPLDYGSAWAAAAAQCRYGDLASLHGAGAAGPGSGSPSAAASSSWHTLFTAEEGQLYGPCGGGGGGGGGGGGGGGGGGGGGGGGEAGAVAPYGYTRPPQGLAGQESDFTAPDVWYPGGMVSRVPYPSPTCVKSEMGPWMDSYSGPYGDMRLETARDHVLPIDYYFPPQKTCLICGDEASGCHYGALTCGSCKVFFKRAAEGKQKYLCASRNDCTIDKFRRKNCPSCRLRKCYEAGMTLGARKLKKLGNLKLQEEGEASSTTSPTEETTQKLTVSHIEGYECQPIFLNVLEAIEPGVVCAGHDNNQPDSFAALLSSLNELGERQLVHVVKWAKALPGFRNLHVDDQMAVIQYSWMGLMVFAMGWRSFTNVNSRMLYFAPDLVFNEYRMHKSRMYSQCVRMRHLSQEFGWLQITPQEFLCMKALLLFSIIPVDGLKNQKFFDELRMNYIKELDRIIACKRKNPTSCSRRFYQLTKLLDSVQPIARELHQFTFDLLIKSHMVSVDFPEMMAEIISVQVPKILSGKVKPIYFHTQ

A further test addresses T2, F876L AR (Homo sapiens, UniProt P10275, DEL79-80/DUP473-473/F877L).
T2 sequence (P10275 with tags, fused parts or gaps DEL79-80/DUP473-473/F877L): T1 sequence (P10275 with tags, fused parts or gaps DEL79-80/DUP473-473) with F876L

The next test addresses F876L VP16-AR (Homo sapiens, UniProt P10275, DEL79-80/DUP473-473/F877L).
Another test concerns the target wild-type VP16-AR (Homo sapiens, UniProt P10275).

With `CC(C)(O)C(=O)Nc1ccc([N+](=O)[O-])c(C(F)(F)F)c1` [Hydroxyflutamide, hydroxyflutamide], the “4X ARE Reporter Assay WT Emax” value on wild-type AR is given as 28.9 ± 5.0 percent maximal R1881 response. The “4X ARE Reporter Assay F876L Emax” value on F876L AR is recorded as 0.8 ± 0.2 percent maximal R1881 response. For the same molecule, at F876L VP16-AR, the “AR-VP16 F876L Emax” value is recorded as 5.36 ± 5.35 percent maximal R1881 response. In addition, the “AR-VP16 WT Emax” value at wild-type VP16-AR is given as 42.28 ± 4.44 percent maximal R1881 response.
